In patent publication US7183075B2, “Purified and isolated potassium-chloride cotransporter nucleic acids and polypeptides and therapeutic and screening methods using same” (Vanderbilt University, priority 2000, dated 2007):
Like-named read-outs stand apart in the source and are kept apart here. Each block holds one compound with its values, some of them ahead of it.

Target: T1, hKCC2 (Homo sapiens, UniProt Q9H2X9, L143X/L381X/L939X)
T1 construct: expressed in transfected cells; host or cells: Xenopus laevis oocytes injected with 25 ng hKCC2 cRNA
T1 sequence (Q9H2X9 with tags, fused parts or gaps isoform Q9H2X9-2 L120X/L358X/L916X limits assumed): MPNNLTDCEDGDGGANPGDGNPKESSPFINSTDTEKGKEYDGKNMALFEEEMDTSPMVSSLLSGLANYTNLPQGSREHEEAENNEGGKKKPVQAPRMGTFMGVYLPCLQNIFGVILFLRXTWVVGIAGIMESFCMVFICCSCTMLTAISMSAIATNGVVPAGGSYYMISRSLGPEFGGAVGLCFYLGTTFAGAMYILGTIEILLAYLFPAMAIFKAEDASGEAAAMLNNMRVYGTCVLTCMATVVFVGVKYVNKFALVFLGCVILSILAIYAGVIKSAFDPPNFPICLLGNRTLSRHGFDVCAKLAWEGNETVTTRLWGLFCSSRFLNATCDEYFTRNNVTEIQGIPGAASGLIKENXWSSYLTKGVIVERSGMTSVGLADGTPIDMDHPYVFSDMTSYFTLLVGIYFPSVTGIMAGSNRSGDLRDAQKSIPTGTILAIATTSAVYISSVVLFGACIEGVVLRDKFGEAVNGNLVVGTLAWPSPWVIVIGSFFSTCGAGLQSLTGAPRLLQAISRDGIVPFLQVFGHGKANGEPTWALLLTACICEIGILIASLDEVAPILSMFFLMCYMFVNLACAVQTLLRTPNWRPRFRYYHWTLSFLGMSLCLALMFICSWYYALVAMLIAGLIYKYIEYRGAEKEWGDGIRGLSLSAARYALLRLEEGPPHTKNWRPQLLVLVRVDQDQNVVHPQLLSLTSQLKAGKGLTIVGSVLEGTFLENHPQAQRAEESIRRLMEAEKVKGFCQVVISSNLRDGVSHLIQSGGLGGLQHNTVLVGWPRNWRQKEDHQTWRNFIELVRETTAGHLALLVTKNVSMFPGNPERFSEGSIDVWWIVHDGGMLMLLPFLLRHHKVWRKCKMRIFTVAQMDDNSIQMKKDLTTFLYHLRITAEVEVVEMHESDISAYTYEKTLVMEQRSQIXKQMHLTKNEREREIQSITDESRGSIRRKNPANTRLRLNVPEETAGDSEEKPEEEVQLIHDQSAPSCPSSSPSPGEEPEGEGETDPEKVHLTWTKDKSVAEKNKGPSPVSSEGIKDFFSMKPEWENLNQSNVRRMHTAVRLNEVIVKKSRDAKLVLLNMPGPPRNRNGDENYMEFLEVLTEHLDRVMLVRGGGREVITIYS
Assay: 86Rb+ uptake (K+-Cl- cotransport) in Xenopus oocytes injected with hKCC2 cRNA
Type: cell-based
Protocol: Oocytes were surgically collected from anesthetized female Xenopus adults under 0.17% tricaine and incubated for 1 hour with vigorous shaking in frog Ringer ND96 (96 mM sodium chloride, 2 mM potassium chloride, 1.8 mM calcium chloride, 1.0 mM magnesium chloride, and 5 mM Hepes/Tris, pH 7.4) in the presence of 2 mg/ml collagenase B. Oocytes were then washed four times in ND96, manually defolliculated, and incubated overnight in ND96 at 18° C. On the next day, defolliculated stage V–VI oocytes were injected with 50 nl of water or a solution containing cRNA at a concentration of 0.25–0.5 μg/μl (25 ng/oocyte). Oocytes were incubated at 17–18° C. in ND96 (96 mM sodium chloride, 2 mM potassium chloride, 1.8 mM calcium chloride, 1.0 mM magnesium chloride, and 5 mM Hepes/Tris, pH 7.4), supplemented with 2.5 mM sodium pyruvate and 5 mg/100 ml gentamicin, for 3–4 days. The incubation medium was changed every 24 hours. On the day of the experiment, oocytes were switched to Cl^−-free ND96 (96 mM Na^+ Na^+ isethionate, 2 mM K^+ gluconate, 6 mM Ca^2+ gluconate, 1 mM Mg^2+ gluconate, 5 mM Hepes, 2.5 mM sodium pyruvate, 5 mg/100 ml gentamicin, pH 7.4) for 2 hours prior to the uptake assay.
K^+—Cl^− cotransport was assessed by measuring tracer ^86Rb^+ uptake (NEN® Life Science Products of Boston, Mass.) in experimental groups of at least 15 oocytes. […] All uptake solutions also contained 1.8 mM CaCl2, 1 mM MgCl2, 5 mM Hepes, pH 7.4, and were supplemented with 1 mM ouabain and […] ^86Rb^+. Isotonic conditions were generated by supplementing the same solutions with 3.5 g/100 ml sucrose to reach isosmolar conditions for oocytes (˜210 mOsm/kg). Ouabain was added to prevent ^86Rb^+ uptake via the Na^+—K^+-ATPase. The absence of extracellular Na^+ and the hypotonicity of the uptake medium prevented ^86Rb^+ uptake via the endogenous Na^+—K^+-2Cl^− cotransporter that is present in oocytes (Gamba et al. (1994) J Biol Chem 269:17713–17722).
All uptake assays were performed at 32° C. At the end of the uptake period, oocytes were washed five times in ice-cold uptake solution without isotope to remove extracellular fluid tracer. Oocytes were dissolved in 10% SDS, and tracer activity was determined for each oocyte by β-scintillation counting.
Uptake assays to detect K^+—Cl^− cotransport mediated by a hKCC2 were performed using similar methods.
FIG. 10 presents line graphs depicting concentration dependence of K^+—Cl^− cotransport mediated by hKCC2, which was used to calculate ion affinities using analogous methods. Uptake assays were simultaneously assessed in water-injected oocytes. To determine ^86Rb^+ uptake due to KCC2, the mean values for water groups were subtracted from the mean values for corresponding KCC2 groups. Uptake assays in hypotonic media were performed for 60 minutes with a fixed concentration of K^+or Cl^− at 50 mM. The concentration of the counterion was varied from 0 to 50 mM as indicated.

[1] = hKCC2, hypotonic, counterion fixed at 50 mM, 86Rb+ as substitute for K+, read-out: Km (Michaelis-Menten fit)

Compound: [K+] [Potassium]
- Km (KCC2, read-out: Potassium Km): 9.3 mM
- Km [1]: 9.3 mM

Compound: HgCl2 [Hg—Cl2]
- response of KCC2 to mercury (50 μM HgCl2, hypotonic): sensitive

Compound: Cl [Chloride]
- Km (KCC2, read-out: Chloride Km): 6.3 mM
- Km [1]: 6.31 mM

- IC50 (KCC2): 90 µM
Compound: NS(=O)(=O)c1cc(C(=O)O)c(NCc2ccco2)cc1Cl [furosemide]
